Data published in patent US9765092B2, “Tricyclic piperidine compounds” (ACTELION PHARMACEUTICALS LTD, priority 2013, dated 2017).

target: human TPH1 (Homo sapiens (Human), UniProt P17752); experiment: Biochemical in vitro assay using fluorescence readout (TPH1 inhibition); conditions: full length human TPH1, 40 μM L-tryptophan, 15° C., 60 minutes, fluorescence at 540 nm; mean if determined several times
Sequence (P17752 whole entry): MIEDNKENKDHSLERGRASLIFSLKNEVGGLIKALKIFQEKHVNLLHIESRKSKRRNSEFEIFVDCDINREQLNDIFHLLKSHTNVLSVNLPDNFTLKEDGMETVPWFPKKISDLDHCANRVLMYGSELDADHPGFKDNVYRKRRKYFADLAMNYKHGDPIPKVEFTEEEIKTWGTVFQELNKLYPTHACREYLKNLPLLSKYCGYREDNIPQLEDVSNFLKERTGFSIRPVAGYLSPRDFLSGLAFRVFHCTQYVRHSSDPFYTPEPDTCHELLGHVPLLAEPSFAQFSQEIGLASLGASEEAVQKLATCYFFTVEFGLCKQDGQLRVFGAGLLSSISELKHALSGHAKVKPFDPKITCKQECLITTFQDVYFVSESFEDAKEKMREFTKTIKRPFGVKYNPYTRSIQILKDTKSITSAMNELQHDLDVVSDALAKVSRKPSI

Row | SMILES | IC50 [nM]
1 | Cc1nn2c3c(nc2s1)CCN(C(=O)COc1ccc(NS(C)(=O)=O)nc1Cl)C3c1ccc(OCCO)cc1F (centres unmarked) [Example 1.84.2, N-(6-Chloro-5-(2-(5-(2-fluoro-4-(2-hydroxyethoxy)phenyl)-2-methyl-7,8-dihydro-[1,3,4]thiadiazolo[2′,3′:2,3]imidazo[4,5-c]pyridin-6(5H)-yl)-2-oxoethoxy)pyridin-2-yl)methanesulfonamide] | 16

same assay, conditions: human TPH1, fluorescence readout

Row | SMILES | IC50 [nM]
2 | COC(=O)c1ccc(C2c3c(nc4sc(C)nn34)CCN2C(=O)COc2ccc(NS(C)(=O)=O)nc2Cl)c(F)c1 (centres unmarked) [Example 1.79.1, methyl-4-(6-(2-((2-chloro-6-(methylsulfonamido)pyridin-3-yl)oxy)acetyl)-2-methyl-5,6,7,8-tetrahydro-[1,3,4]thiadiazolo[2′,3′:2,3]imidazo[4,5-c]pyridin-5-yl)-3-fluorobenzoate] | 17
3 | O=C(COc1cccnc1Cl)N1CCc2nc3sccn3c2C1c1ccc(Cl)cc1F (centres unmarked) [Example 6.4.4, 1-(5-(4-chloro-2-fluorophenyl)-7,8-dihydrothiazolo-[2′,3′:2,3]imidazo[4,5-c]pyridin-6(5H)-yl)-2-((2-chloropyridin-3-yl)oxy)ethanone] | 13
4 | Cc1nn2c3c(nc2s1)CCN(C(=O)COc1ccc(N(C)C)nc1Cl)C3c1cnc(OC(F)F)cc1C (centres unmarked) [Example 1.15.1, 2-((2-chloro-6-(dimethylamino)pyridin-3-yl)oxy)-1-(5-(6-(difluoromethoxy)-4-methylpyridin-3-yl)-2-methyl-7,8-dihydro-[1,3,4]thiadiazolo[2′,3′:2,3]imidazo[4,5-c]pyridin-6(5H)-yl)ethanone] | 58
5 | CCc1nc(C)ccc1OCC(=O)N1CCc2nc3sccn3c2C1c1c(C)noc1C (centres unmarked) [Example 6.5.1, 1-(5-(3,5-dimethylisoxazol-4-yl)-7,8-dihydrothiazolo-[2′,3′:2,3]imidazo[4,5-c]pyridin-6(5H)-yl)-2-((2-ethyl-6-methylpyridin-3-yl)oxy)ethanone] | 117
6 | CCc1nc(N2CCCS2(=O)=O)ccc1OCC(=O)N1CCc2nc3sc(C(F)(F)F)nn3c2[C@@H]1c1ccc(Cl)cc1F [Example 5.1.4] | 7
7 | Cc1nn2c3c(nc2s1)CCN(C(=O)COc1ccc(C(=O)N(C)C)nc1Cl)C3c1ccc(C)c(F)c1F (centres unmarked) [Example 1.61.1, 6-chloro-5-(2-(5-(2,3-difluoro-4-methylphenyl)-2-methyl-7,8-dihydro-[1,3,4]thiadiazolo[2′,3′:2,3]imidazo[4,5-c]pyridin-6(5H)-yl)-2-oxoethoxy)-N,N-dimethylpicolinamide] | 7
8 | Cc1ccc([C@H]2c3c(nc4sc(C)nn34)CCN2C(=O)COc2ccc(NS(C)(=O)=O)nc2Cl)c(F)c1 [Example 1.53.4] | 8
9 | O=C(COc1cccnc1Cl)N1CCc2nc3sccn3c2C1c1ccc(C(F)F)cc1F (centres unmarked) [Example 6.16.3, 2-((2-chloropyridin-3-yl)oxy)-1-(5-(4-(difluoromethyl)-2-fluorophenyl)-7,8-dihydrothiazolo[2′,3′:2,3]imidazo[4,5-c]pyridin-6(5H)-yl)ethanone] | 15
10 | Cc1nn2c3c(nc2s1)CCN(C(=O)COc1ccc(N2CC(F)(F)C2)nc1Cl)C3c1sc(C(=O)N(C)C)cc1F (centres unmarked) [Example 1.24.6, 5-(6-(2-((2-chloro-6-(3,3-difluoroazetidin-1-yl)pyridin-3-yl)oxy)acetyl)-2-methyl-5,6,7,8-tetrahydro-[1,3,4]thiadiazolo [2′,3′:2,3]imidazo[4,5-c]pyridin-5-yl)-4-fluoro-N,N-dimethylthiophene-2-carboxamide] | 5
11 | CCc1nc(C)ccc1OCC(=O)N1CCc2nc3sccn3c2C1c1ccc(C(F)(F)F)nc1C (centres unmarked) [Example 6.17.1, 2-((2-ethyl-6-methylpyridin-3-yl)oxy)-1-(5-(2-methyl-6-(trifluoromethyl)pyridin-3-yl)-7,8-dihydrothiazolo-[2′,3′:2,3]imidazo[4,5-c]pyridin-6(5H)-yl)ethanone] | 194
12 | CNc1ccc(OCC(=O)N2CCc3nc4sc(C)nn4c3C2c2ccc(Cl)nc2F)c(Cl)n1 (centres unmarked) [Example 1.16.3, 1-(5-(6-chloro-2-fluoropyridin-3-yl)-2-methyl-7,8-dihydro-[1,3,4]thiadiazolo[2′,3′:2,3]imidazo[4,5-c]pyridin-6(5H)-yl)-2-((2-chloro-6-(methylamino)pyridin-3-yl)oxy)ethanone] | 8
13 | Cc1nc(C)c(C2c3c(nc4sc(C)nn34)CCN2C(=O)COc2ccc(C(=O)N(C)C3CC3)nc2Cl)s1 (centres unmarked) [Example 1.68.4, 6-chloro-N-cyclopropyl-5-(2-(5-(2,4-dimethylthiazol-5-yl)-2-methyl-7,8-dihydro-[1,3,4]thiadiazolo[2′,3′:2,3]imidazo[4,5-c]pyridin-6(5H)-yl)-2-oxoethoxy)-N-methylpicolinamide] | 19
14 | CCc1ncccc1OCC(=O)N1CCc2nc3sccn3c2C1c1cnn(-c2ccccc2)c1 (centres unmarked) [Example 6.13.9, 2-((2-ethylpyridin-3-yl)oxy)-1-(5-(1-phenyl-1H-pyrazol-4-yl)-7,8-dihydrothiazolo[2′,3′:2,3]imidazo[4,5-c]pyridin-6(5H)-yl)ethanone] | 123
15 | N#Cc1ccc(OCC(=O)N2CCc3nc4scnn4c3C2c2ccc(Cl)cc2F)c(Cl)c1 (centres unmarked) [Example 2.1.2, 3-chloro-4-(2-(5-(4-chloro-2-fluorophenyl)-7,8-dihydro-[1,3,4]thiadiazolo[2′,3′:2,3]imidazo[4,5-c]pyridin-6(5H)-yl)-2-oxoethoxy)benzonitrile] | 31
16 | Cc1nn2c3c(nc2s1)CCN(C(=O)COc1ccc(NS(C)(=O)=O)nc1Cl)C3c1cncs1 (centres unmarked) [Example 1.39.1, N-(6-chloro-5-(2-(2-methyl-5-(thiazol-5-yl)-7,8-dihydro-[1,3,4]thiadiazolo[2′,3′:2,3]imidazo[4,5-c]pyridin-6(5H)-yl)-2-oxoethoxy)pyridin-2-yl)methanesulfonamide] | 101
17 | Cc1nn2c3c(nc2s1)CCN(C(=O)COc1ccc(NS(C)(=O)=O)nc1Cl)C3c1ncc(F)cc1C (centres unmarked) [Example 1.75.1, N-(6-chloro-5-(2-(5-(5-fluoro-3-methylpyridin-2-yl)-2-methyl-7,8-dihydro-[1,3,4]thiadiazolo[2′,3′:2,3]imidazo[4,5-c]pyridin-6(5H)-yl)-2-oxoethoxy)pyridin-2-yl)methanesulfonamide] | 9
18 | COC(=O)c1cnc(C2c3c(nc4sc(C)nn34)CCN2C(=O)COc2ccc(C(F)(F)F)cc2Cl)s1 (centres unmarked) [Example 1.28.2, Methyl 2-(6-(2-(2-chloro-4-(trifluoromethyl)phenoxy)acetyl)-2-methyl-5,6,7,8-tetrahydro-[1,3,4]thiadiazolo [2′,3′:2,3]imidazo[4,5-c]pyridin-5-yl)thiazole-5-carboxylate] | 40
19 | CNC(=O)c1ccc(OCC(=O)N2CCc3nc4sc(C)nn4c3C2c2ccc(Cl)cc2F)c(Cl)n1 (centres unmarked) [Example 1.4.21, 6-chloro-5-(2-(5-(4-chloro-2-fluorophenyl)-2-methyl-7,8-dihydro-[1,3,4]thiadiazolo[2′,3′:2,3]imidazo[4,5-c]pyridin-6(5H)-yl)-2-oxoethoxy)-N-methylpicolinamide] | 5
20 | Cc1nn2c3c(nc2s1)CCN(C(=O)COc1ccc(N2CCOCC2)cc1Cl)C3c1ccc(Cl)cc1F (centres unmarked) [Example 1.4.3, 1-(5-(4-chloro-2-fluorophenyl)-2-methyl-7,8-dihydro-[1,3,4]thiadiazolo[2′,3′:2,3]imidazo[4,5-c]pyridin-6(5H)-yl)-2-(2-chloro-4-morpholinophenoxy)ethanone] | 4
